This passage reports TGI results from PubChem BioAssay (NCI).

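Growth conditions: 96-well plates. Treatment: test compound, 48 hours, 5 concentrations. Analysis: linear interpolation between bracketing concentrations; unreached endpoints set to highest concentration. TGI marks complete inhibition of growth.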

What all share (test): DTP human tumour cell line panel, 48 h
For test [1], the system named is NCI/ADR-RES ovarian.
For test [2], the system named is SN12C renal.
Test [3] has as its system UO-31 renal.
Test [4] deals with HS 578T breast.
The test system of test [5] is MDA-MB-435.
The test system of test [6] is RXF 393 renal.
Test [7] relates to A549 NSCLC.
The subject of test [8] is HL-60(TB) leukemia.
Test [9] concerns UACC-62 melanoma.
In test [10] the test system is BT-549 breast.

As to `COc1c(-c2nc3nc(N4CCN(C)CC4)ccc3[nH]2)cc(OC)c2c1nc(CCl)n2C`, the TGI in [1] is above 100 µM; in test [2], above 100 µM; in test [3], 32.8 µM; in test [4], above 100 µM; in [5] it was 38.2 µM; in [6], 33.8 µM. The TGI stood at 79.6 µM in test [7], 53.5 µM in test [8], 23.1 µM in [9] and 40.4 µM in test [10].
Turning to `COc1cc(CC2C(=O)OCC2Cc2ccc(OC)c(OC)c2)ccc1O` (stereo not given), the TGI in test [1], in test [2], in test [3], in [4], in test [5] and in [6] was above 100 µM each time. Moreover, the TGI in [7], in test [8], in [9] and in [10] was above 100 µM in each case.
In the case of `N#Cc1c2c(c(Nc3ccc(Cl)cc3)n3c1nc1ccccc13)CCCC2`, the TGI in [1] is above 100 µM; in test [2], above 100 µM; in test [3], above 100 µM; in [4] it was above 87.4 µM; in [5], above 100 µM; in test [6] it was above 85.1 µM. The TGI in [7], in [8], in test [9] and in [10] was above 100 µM throughout.
For `CCc1nc2cc(F)ccc2[nH]c1=O`, the TGI in test [1], in test [2], in test [3], in test [4], in test [5] and in test [6] was above 100 µM each time. Further, the TGI in test [7], in test [8], in test [9] and in test [10] was above 100 µM in each case.
On to `N=c1sc(N2CCOCC2)nn1CC(=O)c1ccccc1`, for which the TGI in [1], in test [2], in test [3], in test [4], in [5] and in [6] was above 100 µM each time. Moreover, the TGI in test [7], in test [8], in [9] and in test [10] was above 100 µM each time.
In the case of `CC(=O)Oc1c(OC(C)C)cc(=O)n2ccsc12`, the TGI in test [1] is above 100 µM; in test [2], above 100 µM; in test [3] it was above 100 µM; in test [4], above 100 µM; in test [5], 31 µM; in [6], above 100 µM. In addition, the TGI in test [7] is above 100 µM; in test [8], 58.7 µM; in [9] it was above 100 µM; in test [10], above 100 µM.
On to `CO[C@@H](c1ccccc1)[C@H](O)[C@@](O)(c1ccccc1)P(=O)(OC)OC`, for which the TGI in [1], in test [2], in [3], in test [4], in test [5] and in test [6] was above 100 µM throughout. The TGI in test [7], in test [8], in test [9] and in test [10] was above 100 µM in each case.
Regarding `CNc1nc(OC)c2c(n1)[n+](C)cn2C`, the TGI in test [1], in test [2], in [3], in test [4], in test [5] and in test [6] was above 100 µM each time. Besides, the TGI in test [7], in test [8], in test [9] and in test [10] was above 100 µM throughout.
For the compound `N#Cc1c(N)n(-c2nc3ccccc3s2)c(=O)c2cc([N+](=O)[O-])ccc12`, the TGI is 22.8 µM in test [1]; above 100 µM in test [2]; above 79.2 µM in test [3]; 36.9 µM in test [4]; above 69.1 µM in [5]; 41.9 µM in test [6]. Further, the TGI in [7] was above 56.8 µM; in test [8], 24.9 µM; in test [9], 66.8 µM; in [10] it was above 62.7 µM.
For the compound `CO/C(N)=C(\C#N)N=Cc1cccs1`, the TGI in test [1] was above 100 µM; in test [2], above 100 µM; in [3] it was above 100 µM; in test [4] it was above 100 µM; in test [5], 73.3 µM; in [6], above 100 µM. The TGI is above 100 µM in test [7], 65.4 µM in test [8], above 100 µM in [9] and above 100 µM in test [10].
For the compound `CC(C)(C)OC(=O)NCCCCC1NC(=O)[C@@H]2Cc3c([nH]c4ccccc34)C(c3ccccc3)N2C1=O` (stereo not given in full), the TGI in test [1] was above 100 µM; in test [2] it was 79.6 µM; in test [3], above 100 µM; in test [4] it was 49.6 µM; in test [5] it was above 100 µM; in [6], 42.2 µM. The TGI in [7] was above 100 µM; in [8], 52.3 µM; in test [9], 95.6 µM; in test [10], 68.4 µM.
